Test results: patent US10927136B2, “Phosphorus prodrugs of pyrazolo-substituted pyrimidine sGC stimulators” (Cyclerion Therapeutics, Inc., priority 2016, dated 2021)
In brackets after ≈: the same amount, converted by molar mass. Where two headings read alike, the source gives them in different places.

How the values were obtained:
[1] = Thermodynamic solubility measurements; format: physicochemical; conditions: aqueous buffer, pH 7, aqueous buffer, thermodynamic from solid
Protocol: Approximately 1 mg of test compound was weighed into 1.5 mL Eppendorf tubes and 1.5 mL of aqueous buffer of a given pH was added. The samples were vortexed and placed on a shaker at 150 RPM for 2-5 days. The samples were harvested and then centrifuged at 12 K RPM for 20 minutes. The supernatant was diluted twice with Acetonitrile (ACN) and analyzed by UPLC. To dilute the samples, 200 uL of supernatant was taken and discarded. Then, 400 uL of supernatant (with 200 uL intervals) was taken and added to 400 uL of acetonitrile (with 200 uL intervals).
UPLC conditions: Mobile Phase A: 0.1% TFA in Water; Mobile Phase B: 0.1% TFA in Acetonitrile; Column: Acquity BEH C18, 1.7 um, 2.1×50 mm; Injection Volume: 2-3 uL; Autosampler Temperature: Ambient; Column Temperature: 25° C.; Run Time: 10 minutes; Flow Rate: 0.45 mlJmin; Collected Wavelengths: 220 nm, 245 nm, 254 nm, 280 nm, PDA Spectrum (190-400 nm); Wavelength Used for Analysis: 254 nm

[2] = biological target: T1, soluble guanylate cyclase (sGC) (Homo sapiens, UniProt Q02108+Q02153); assay: sGC-HEK-cGMP assay with LC/MS detection; format: cell-based; conditions: for EC50: HEK293 cells, 10 μM DETA-NONOate, cGMP by LC/MS, read-out: Absolute EC50; for sGC agonism as compared to parent drug: HEK assay with LC/MS detection
T1 construct: endogenously expressing soluble guanylate cyclase (sGC); endogenous in cells; host or cells: HEK293
T1 sequence (Q02153 1-619): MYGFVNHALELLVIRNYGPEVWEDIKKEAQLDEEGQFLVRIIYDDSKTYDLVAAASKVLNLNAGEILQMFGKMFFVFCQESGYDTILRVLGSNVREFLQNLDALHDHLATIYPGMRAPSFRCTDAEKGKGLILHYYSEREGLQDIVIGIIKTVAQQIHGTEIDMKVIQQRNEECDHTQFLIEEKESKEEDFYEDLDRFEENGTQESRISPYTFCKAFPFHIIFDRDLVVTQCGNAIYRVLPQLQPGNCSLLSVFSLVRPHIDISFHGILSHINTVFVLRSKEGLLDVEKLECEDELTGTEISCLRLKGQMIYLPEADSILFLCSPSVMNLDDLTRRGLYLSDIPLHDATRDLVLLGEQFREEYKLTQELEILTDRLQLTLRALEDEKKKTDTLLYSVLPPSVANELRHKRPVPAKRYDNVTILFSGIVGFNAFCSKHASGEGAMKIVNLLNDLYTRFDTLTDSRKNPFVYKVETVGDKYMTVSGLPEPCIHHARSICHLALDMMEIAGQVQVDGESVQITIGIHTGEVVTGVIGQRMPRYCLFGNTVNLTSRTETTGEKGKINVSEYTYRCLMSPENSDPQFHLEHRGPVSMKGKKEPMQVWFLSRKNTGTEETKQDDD
T1 sequence (Q02108 1-690): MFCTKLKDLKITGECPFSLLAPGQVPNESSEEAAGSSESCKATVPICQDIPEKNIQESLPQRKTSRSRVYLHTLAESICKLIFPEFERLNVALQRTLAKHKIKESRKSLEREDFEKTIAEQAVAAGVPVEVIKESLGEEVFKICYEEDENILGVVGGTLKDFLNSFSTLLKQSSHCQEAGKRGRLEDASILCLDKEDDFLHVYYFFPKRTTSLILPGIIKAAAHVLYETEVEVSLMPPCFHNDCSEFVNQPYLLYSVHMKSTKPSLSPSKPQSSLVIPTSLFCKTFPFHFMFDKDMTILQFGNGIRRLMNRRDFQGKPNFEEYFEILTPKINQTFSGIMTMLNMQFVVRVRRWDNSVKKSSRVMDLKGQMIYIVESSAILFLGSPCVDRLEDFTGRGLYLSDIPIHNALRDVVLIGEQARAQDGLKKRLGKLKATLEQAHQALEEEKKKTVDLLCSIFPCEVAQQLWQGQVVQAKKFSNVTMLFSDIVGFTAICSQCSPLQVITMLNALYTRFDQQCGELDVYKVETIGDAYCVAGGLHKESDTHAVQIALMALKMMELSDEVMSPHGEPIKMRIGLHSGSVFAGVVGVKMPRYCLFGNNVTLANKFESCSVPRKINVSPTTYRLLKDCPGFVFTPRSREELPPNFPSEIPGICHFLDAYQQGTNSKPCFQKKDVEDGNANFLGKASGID
Protocol: Human embryonic kidney cells (HEK293), endogenously expressing soluble guanylate cyclase (sGC), were used to evaluate the activity of test compounds. Compounds stimulating the sGC enzyme should cause an increase in the intracellular concentration of cGMP. HEK 293 cells were seeded in Dulbecco's Modification of Eagle's Medium supplemented with fetal bovine serum (10% final) and penicillin (100 U/mL)/streptomycin (100 μg/mL) in a 50 μL volume at a density of 1.5×10^4 cells/well in a poly-D-lysine coated 384 well flat bottom plate. Cells were incubated overnight at 37° C. in a humidified chamber with 5% CO2. Medium was aspirated and cells were washed with 1×Hank's Buffered Saline Salt Solution (50 μL). Cells were then incubated for 15 minutes at 37° C. with 50 μL of a 0.5 mM 3-isobutyl-1-methylxanthine (IBMX) solution. The test article and Diethylenetriamine NONOate (DETA-NONOate) solutions (x μM concentration for test article solution and 10 μM concentration for DETA-NONOate solution; wherein x is one of the following concentrations)
were then added to the assay mixture and the resulting mixture was incubated at 37° C. for 20 minutes. After the 20 minute incubation, the assay mixture was aspirated and 10% acetic acid containing 150 ng/mL+3-cGMP (internal standard for LCMS) (50 μL) was added to the cells. The plate was incubated at 4° C. for 30 minutes in the acetic acid solution to stop the reaction and lyse the cells. The plates were then centrifuged at 1,000 g for 3 minutes at 4° C. and the supernatant transferred to a clean reaction plate for LCMS analysis.
cGMP concentrations were determined from each sample using the LCMS conditions below (Table 2) and calculated standard curve. The standard curve was prepared in 10% acetic acid with 150 ng/mL+3cGMP (isotopically labelled cGMP with a weight 3 units higher than wild type) with the following final concentrations of cGMP in ng/mL: 1, 5, 10, 50, 100, 250, 500, 1000, 2000.
Data were normalized to a high control using the following equation: 100*(Sample−Low Control)/(High Control−Low Control), where the low control is the average of 16 samples treated with 1% DMSO, and the high control is the average of 16 samples treated with 30 μM of Compound Y depicted below. Data were fit using a 4-parameter fit (log(agonist) vs. response—variable slope) using GraphPad Prism Software v.5. n=2 for all compounds. The Absolute EC50 was interpolated from the curve fit and is defined as the concentration at which a given compound elicits 50% of the high control response. Compounds failing to elicit a minimum response of 50% are reported as >30 μM. For compounds run in duplicate or n higher than 2, the result herein given is the geometric mean of the several results obtained.
sGC enzyme activity values in HEK cells, expressed as Absolute EC50 which is defined as the concentration at which a given compound elicits 50% of the high control response obtained with Compound Y, after normalization.

solubility [1]	EC50 ([2]; prodrug)	EC50 ([2]; Parent compound column)	Structure (SMILES)	sGC agonism as compared to parent drug [2]
66 to 1000 µg/mL (≈ 107 to 1630 µM)	13 µM	–	O=P(O)(O)OC(CNc1nc(-c2cc(-c3ccon3)n(Cc3ccccc3F)n2)ncc1F)(C(F)(F)F)C(F)(F)F [Compound I-1]	did not exhibit a high degree of sGC agonism
71 µg/mL (≈ 110 µM)	25 µM	–	O=P(O)(O)OCOC(CNc1nc(-c2cc(-c3ccon3)n(Cc3ccccc3F)n2)ncc1F)(C(F)(F)F)C(F)(F)F [Compound I-4]	did not exhibit a high degree of sGC agonism
2 to 3 µg/mL (≈ 3.74 to 5.61 µM)	–	0.22 µM	OC(CNc1nc(-c2cc(-c3ccon3)n(Cc3ccccc3F)n2)ncc1F)(C(F)(F)F)C(F)(F)F [Intermediate 3]	–
